# Experimental data taken from patent US11078540B2, “Methods of diagnosing and treating cancer in patients having or developing resistance to a first cancer therapy” (DANA-FARBER CANCER INSTITUTE, INC., priority 2010, dated 2021).
# Key:
# A375 cells [1] = assay: High throughput ORF screening: viability of A375 expressing the kinase ORF collection in 1 μM PLX4720 relative to untreated, normalized to MEK1DD (Cell Titer-Glo); assay type: cell-based, human
# Method: A375 melanoma cells were plated in 384-well microtiter plates (500 cells per well). The following day, cells were spin-infected with the lentivirally-packaged kinase ORF library in the presence of 8 ug/ml polybrene. 48 hours post-infection, media was replaced with standard growth media (2 replicates), media containing 1 μM PLX4720 (2 replicates, 2 time points) or media containing 10 ug/ml blasticidin (2 replicates). After four days and 6 days, cell growth was assayed using Cell Titer-Glo (Promega) according to manufacturer instructions. The entire experiment was performed twice.
# Raw luminescence values were imported into Microsoft Excel. Infection efficiency was determined by the percentage of duplicate-averaged raw luminescence in blasticidin selected cells relative to non-selected cells. ORFs with an infection efficiency of less than 0.70 were excluded from further analysis along with any ORF having a standard deviation of >15,000 raw luminescence units between duplicates. To identify ORFs whose expression affects proliferation, we compared the duplicate-averaged raw luminescence of individual ORFs against the average and standard deviation of all control-treated cells via the z-score, or standard score, below,
# [formula] where x=average raw luminescence of a given ORF, μ=the mean raw luminescence of all ORFs and σ=the standard deviation of the raw luminescence of all wells. Any individual ORF with a z-score>+2 or <−2 was annotated as affecting proliferation and removed from final analysis. Differential proliferation was determined by the percentage of duplicate-averaged raw luminescence values in PLX4720 (1 μM) treated cells relative to untreated cells. […] MEK1^DD normalized differential proliferation for each individual ORF was averaged across two duplicate experiments, with two time points for each experiment (day 4 and day 6). A z-score was then generated, as described above for average MEK1^DD normalized differential proliferation. ORFs with a z-score of >2 were considered hits and were followed up in the secondary screen.
# COT mRNA [2] = assay: Quantitative RT-PCR of COT mRNA in lesion-matched biopsies of PLX4032-treated metastatic melanoma patients; assay type: in vivo, human; details: 3 patients with metastatic B-RAF^V600E melanoma, on-treatment vs pre-treatment biopsies
# From the text: Biopsied tumor material consisted of discarded and de-identified tissue that was obtained with informed consent and characterized under protocol 02-017 (paired samples, Massachusetts General Hospital) and 07-087 (unpaired sample, Dana-Farber Cancer Institute). For paired specimens, ‘on-treatment’ samples were collected 10-14 days after initiation of PLX4032 treatment (Table 6).
# (§1) mRNA was extracted from cell lines and fresh-frozen tumors using the RNeasy kit (Qiagen). Total mRNA was used for subsequent reverse transcription using the SuperScript III First-Strand Synthesis SuperMix (Invitrogen) for cell lines and unpaired tumor samples, and the SuperScript VILO cDNA synthesis kit (Invitrogen) for paired frozen tumor samples. 5 μl of the RT reaction was used for quantitative PCR using SYBR Green PCR Master Mix and gene-specific primers, in triplicate, using an ABI 7300 Real Time PCR System. Primers used for detection are as follows: […]
# B-RAF^V600E cell lines = assay: Pharmacologic growth inhibition assays (WST1 viability, GI50, single-dose studies); assay type: cell-based, human; details: for cell growth, in combination with PLX4720: ectopic COT expression, 1 μM each, versus single-agent PLX4720 up to 10 μM
# Method: Cultured cells were seeded into 96-well plates (3,000 cells per well) for all melanoma cell lines; 1,500 cells were seeded for A375. Twenty-four hours after seeding, serial dilutions of the relevant compound were prepared in DMSO added to cells, yielding final drug concentrations ranging from 100 μM to […], with the final volume of DMSO not exceeding 1%. Cells were incubated for 96 h following addition of drug. Cell viability was measured using the WST1 viability assay (Roche). Viability was calculated as a percentage of control (untreated cells) after background subtraction. A minimum of six replicates were performed for each cell line and drug combination. Data from growth-inhibition assays were modeled using a nonlinear regression curve fit with a sigmoid dose-response. […] Sigmoid-response curves that crossed the 50% inhibition point at or above 10 μM have GI50 values annotated as >10 μM. For single-dose studies, the identical protocol was followed, using a single dose of indicated drug (1 μM unless otherwise noted).
# [3] = system: pERK1/2 (T202/Y204), pMEK1/2 (S217/221); assay: Immunoblots and immunoprecipitations of MAPK pathway proteins in treated cells; assay type: cell-based, human; details: for pERK expression, in combination with PLX4720: ectopic COT expression, 1 μM each, versus single-agent PLX4720 up to 10 μM
# Method: Cells were washed twice with ice-cold PBS and lysed with 1% NP-40 buffer [150 mM NaCl, 50 mM Tris pH 7.5, 2 mM EDTA pH 8, 25 mM NaF and 1% NP-40] containing 2× protease inhibitors (Roche) and 1× Phosphatase Inhibitor Cocktails I and II (CalBioChem). Lysates were quantified (Bradford assay), normalized, reduced, denatured (95° C.) and resolved by SDS gel electrophoresis on 10% Tris/Glycine gels (Invitrogen). Protein was transferred to PVDF membranes and probed with primary antibodies recognizing pERK1/2 (T202/Y204), pMEK1/2 (S217/221), MEK1/2, MEK1, MEK2, C-RAF (rabbit host), pC-RAF (pS338) (Cell Signaling Technology; 1:1,000), V5-HRP (Invitrogen; (1:5,000), COT (1:500), B-RAF (1:2,000), Actin (1:1,000), Actin-HRP (1:1,000; Santa Cruz)), C-RAF (mouse host; 1:1,000; BD Transduction Labs), Vinculin (Sigma; 1:20,000), AXL (1:500; R&D Systems). After incubation with the appropriate secondary antibody (anti-rabbit, anti-mouse IgG, HRP-linked; 1:1,000 dilution, Cell Signaling Technology or anti-goat IgG, HRP-linked; 1:1,000 dilution; Santa Cruz), proteins were detected using chemiluminescence (Pierce). Immunoprecipitations were performed overnight at 4° C. in 1% NP-40 lysis buffer, as described above, at a concentration of 1 μg/μl total protein using an antibody recognizing C-RAF (1:50; Cell Signaling Technology). Antibody: antigen complexes were bound to Protein A agarose (25 μL, 50% slurry; Pierce) for 2 hrs. at 4° C. Beads were centrifuged and washed three times in lysis buffer and eluted and denatured (95° C.) in 2× reduced sample buffer (Invitrogen). Immunoblots were performed as above. Phospho-protein quantification was performed using NIH Image J.
# A375 cells [4] = assay: Secondary screen: PLX4720 GI50 in A375 expressing candidate resistance ORFs (WST-1); assay type: cell-based, human; details: for GI50: Homo sapiens
# Method: (§2) ORF-expressing lentivirus was added at a 1:10 dilution in the presence of 8 μg/ml polybrene, and centrifuged at 2250 RPM and 37° C. for 1 h. Following centrifugation, virus-containing media was changed to normal growth media and allowed to incubate for 18 h.
# SKMEL28 cells = assay: Secondary screen: PLX4720 GI50 in SKMEL28 expressing candidate resistance ORFs (WST-1); assay type: cell-based, human; details: for GI50: Homo sapiens
# Method: as §2
# COT mRNA [5] = assay: Quantitative RT-PCR of COT mRNA in cell lines; assay type: cell-based, human; details: COT-expressing A375 cells, 1 μM PLX4720, 18 h
# Method: as §1
# COT = target: T1, COT (Homo sapiens, UniProt P41279); assay: Inhibition of COT kinase activity in RPMI-7951 cells (MEK/ERK phosphorylation immunoblot); assay type: cell-based; details: 1 h treatment
# T1 construct: endogenous in cells; host or cells: RPMI-7951 (ATCC), MAP3K8/COT-amplified, B-RAF V600E melanoma line
# Method: Cells were washed twice with ice-cold PBS and lysed with 1% NP-40 buffer [150 mM NaCl, 50 mM Tris pH 7.5, 2 mM EDTA pH 8, 25 mM NaF and 1% NP-40] containing 2× protease inhibitors (Roche) and 1× Phosphatase Inhibitor Cocktails I and II (CalBioChem). Lysates were quantified (Bradford assay), normalized, reduced, denatured (95° C.) and resolved by SDS gel electrophoresis on 10% Tris/Glycine gels (Invitrogen). Protein was transferred to PVDF membranes and probed with primary antibodies recognizing pERK1/2 (T202/Y204), pMEK1/2 (S217/221), MEK1/2, MEK1, MEK2, C-RAF (rabbit host), pC-RAF (pS338) (Cell Signaling Technology; 1:1,000), V5-HRP (Invitrogen; (1:5,000), COT (1:500), B-RAF (1:2,000), Actin (1:1,000), Actin-HRP (1:1,000; Santa Cruz)), C-RAF (mouse host; 1:1,000; BD Transduction Labs), Vinculin (Sigma; 1:20,000), AXL (1:500; R&D Systems). After incubation with the appropriate secondary antibody (anti-rabbit, anti-mouse IgG, HRP-linked; 1:1,000 dilution, Cell Signaling Technology or anti-goat IgG, HRP-linked; 1:1,000 dilution; Santa Cruz), proteins were detected using chemiluminescence (Pierce). […] Immunoblots were performed as above. Phospho-protein quantification was performed using NIH Image J.
# Adherent RPMI-7951 cells were washed twice with 1×PBS and incubated overnight in serum-free growth media.
compound,measurement,setting,value
CCL4,Z-SCORE of average differential proliferation (1 μM PLX4720/control),"A375 cells [1]; A375 cells expressing the named ORF, relative to mean of all ORFs (44.26%, SD 7.19%)",−0.13
same,"AVERAGE differential proliferation (1 μM PLX4720/control), relative to MEK DD","A375 cells [1]; A375 cells expressing the named kinase-related ORF, 1 μM PLX4720 vs untreated control, normalized to MEK DD",43.30%
CCCS(=O)(=O)Nc1ccc(F)c(C(=O)c2c[nH]c3ncc(-c4ccc(Cl)cc4)cc23)c1F [PLX4032],COT mRNA expression concurrent with treatment,COT mRNA [2],increased COT mRNA expression
Cn1cnc2c(F)c(Nc3ccc(Br)cc3Cl)c(C(=O)NOCCO)cc21 [AZD6244],"cell growth, in combination with PLX4720",B-RAF^V600E cell lines,more effectively than did single-agent PLX4720
same,"pERK expression, in combination with PLX4720",[3],more effectively than did single-agent PLX4720
CCCS(=O)(=O)Nc1ccc(F)c(C(=O)c2c[nH]c3ncc(Cl)cc23)c1F [PLX4720],viability at 1 µM,"A375 cells [1]; Homo sapiens, A-375, A375 expressing kinase ORF collection, 1 μM PLX4720, read-out: relative viability, mean of all ORFs, normalized to MEK1DD",44.3%
same,Fold Change GI50,"A375 cells [4]; A375, Mock control, relative to MEK1",0.91 fold
same,Fold Change GI50,"A375 cells [4]; A375 expressing AXL ORF, relative to MEK1",5.98 fold
same,Fold Change GI50,"A375 cells [4]; A375 expressing CRKL ORF, relative to MEK1",59.8 fold
same,Fold Change GI50,"A375 cells [4]; A375 expressing ERBB2 ORF, relative to MEK1",7.95 fold
same,Fold Change GI50,"A375 cells [4]; A375 expressing FGR ORF, relative to MEK1",59.8 fold
same,Fold Change GI50,"A375 cells [4]; A375 expressing MAP3K8 ORF, relative to MEK1",598 fold
same,Fold Change GI50,"A375 cells [4]; A375 expressing MEK1, (−) control",1 fold
same,Fold Change GI50,"A375 cells [4]; A375 expressing MEK DD, (+) control, relative to MEK1",28 fold
same,Fold Change GI50,"A375 cells [4]; A375 expressing PAK3 ORF, relative to MEK1",2.95 fold
same,Fold Change GI50,"A375 cells [4]; A375 expressing PRKCE ORF, relative to MEK1",26.4 fold
same,Fold Change GI50,"A375 cells [4]; A375 expressing PRKCH ORF, relative to MEK1",24.7 fold
same,Fold Change GI50,"A375 cells [4]; A375 expressing RAF1 ORF, relative to MEK1",598 fold
same,GI50,"A375 cells [4]; A-375, A375, Mock control",153 nM
same,GI50,"A375 cells [4]; A-375, A375 expressing AXL ORF",1000 nM
same,GI50,"A375 cells [4]; A-375, A375 expressing CRKL ORF",> 10000 nM
same,GI50,"A375 cells [4]; A-375, A375 expressing ERBB2 ORF",1330 nM
same,GI50,"A375 cells [4]; A-375, A375 expressing FGR ORF",> 10000 nM
same,GI50,"A375 cells [4]; A-375, A375 expressing MAP3K8 ORF",> 100000 nM
same,GI50,"A375 cells [4]; A-375, A375 expressing MEK1, (−) control",167 nM
same,GI50,"A375 cells [4]; A-375, A375 expressing MEK DD, (+) control",4800 nM
same,GI50,"A375 cells [4]; A-375, A375 expressing PAK3 ORF",493 nM
same,GI50,"A375 cells [4]; A-375, A375 expressing PRKCE ORF",4410 nM
same,GI50,"A375 cells [4]; A-375, A375 expressing PRKCH ORF",4140 nM
same,GI50,"A375 cells [4]; A-375, A375 expressing RAF1 ORF",≥ 100000 nM
same,shift of the PLX4720 GI50,"A375 cells [4]; MAP3K8 (COT/Tpl2) and RAF1 (C-RAF) ORFs, in A375 and SKMEL28",10-600 fold
same,GI50,"SKMEL28 cells; SK-MEL-28, SKMEL28, Mock control",529 nM
same,GI50,"SKMEL28 cells; SK-MEL-28, SKMEL28 expressing AXL ORF",1180 nM
same,GI50,"SKMEL28 cells; SK-MEL-28, SKMEL28 expressing CRKL ORF",9700 nM
same,GI50,"SKMEL28 cells; SK-MEL-28, SKMEL28 expressing ERBB2 ORF",1000 nM
same,GI50,"SKMEL28 cells; SK-MEL-28, SKMEL28 expressing FGR ORF",5000 nM
same,GI50,"SKMEL28 cells; SK-MEL-28, SKMEL28 expressing MAP3K8 ORF",> 100000 nM
same,GI50,"SKMEL28 cells; SK-MEL-28, SKMEL28 expressing MEK1, (−) control",1000 nM
same,GI50,"SKMEL28 cells; SK-MEL-28, SKMEL28 expressing MEK DD, (+) control",8290 nM
same,GI50,"SKMEL28 cells; SK-MEL-28, SKMEL28 expressing PAK3 ORF",904 nM
same,GI50,"SKMEL28 cells; SK-MEL-28, SKMEL28 expressing PRKCE ORF",1910 nM
same,GI50,"SKMEL28 cells; SK-MEL-28, SKMEL28 expressing PRKCH ORF",2260 nM
same,GI50,"SKMEL28 cells; SK-MEL-28, SKMEL28 expressing RAF1 ORF",≥ 10000 nM
same,Fold Change GI50,"SKMEL28 cells; SKMEL28, Mock control, relative to MEK1",1.89 fold
same,Fold Change GI50,"SKMEL28 cells; SKMEL28 expressing AXL ORF, relative to MEK1",1.18 fold
same,Fold Change GI50,"SKMEL28 cells; SKMEL28 expressing CRKL ORF, relative to MEK1",9.7 fold
same,Fold Change GI50,"SKMEL28 cells; SKMEL28 expressing ERBB2 ORF, relative to MEK1",1 fold
same,Fold Change GI50,"SKMEL28 cells; SKMEL28 expressing FGR ORF, relative to MEK1",5 fold
same,Fold Change GI50,"SKMEL28 cells; SKMEL28 expressing MAP3K8 ORF, relative to MEK1",~100 fold
same,Fold Change GI50,"SKMEL28 cells; SKMEL28 expressing MEK1, (−) control",1 fold
same,Fold Change GI50,"SKMEL28 cells; SKMEL28 expressing MEK DD, (+) control, relative to MEK1",8.29 fold
same,Fold Change GI50,"SKMEL28 cells; SKMEL28 expressing PAK3 ORF, relative to MEK1",0.9041 fold
same,Fold Change GI50,"SKMEL28 cells; SKMEL28 expressing PRKCE ORF, relative to MEK1",1.91 fold
same,Fold Change GI50,"SKMEL28 cells; SKMEL28 expressing PRKCH ORF, relative to MEK1",2.26 fold
same,Fold Change GI50,"SKMEL28 cells; SKMEL28 expressing RAF1 ORF, relative to MEK1",≥10 fold
same,GI50,"B-RAF^V600E cell lines; Homo sapiens, OUMS-23, RPMI-7951 and M307 (COT-expressing B-RAF^V600E cell lines)",8000 to 10000 nM
same,endogenous C-RAF:B-RAF heterodimers,"[3]; A375 cells, immunoprecipitated C-RAF, 1 μM PLX4720, 18 hr",measurable and inducible
same,COT protein,[3]; COT-expressing A375 cells,dose-dependent increase
same,ERK phosphorylation in the context of B-RAF inhibition,"[3]; OUMS-23, RPMI-7951 and M307",sustained ERK phosphorylation
same,phosphorylation of ERK/MEK,"[3]; OUMS-23, across a dose range of PLX4720",constitutive phosphorylation
same,ectopic COT mRNA levels,COT mRNA [5],without affecting
O=C(NOCC1CC1)c1ccc(F)c(F)c1Nc1ccc(I)cc1Cl [CI-1040],sensitivity to MEK inhibitor with ectopic COT expression,B-RAF^V600E cell lines; A375 and SKMEL28 cells ectopically expressing COT,decreased sensitivity
same,sensitivity of cell lines with aberrant MAP3K8/COT copy number/expression,B-RAF^V600E cell lines; B-RAF^V600E cell lines,insensitive
same,sensitivity to MEK inhibition (growth),B-RAF^V600E cell lines; OUMS-23 and RPMI-7951 cell lines,refractory
same,"cell growth, in combination with PLX4720",B-RAF^V600E cell lines,more effectively than did single-agent PLX4720
same,ERK phosphorylation,"[3]; OUMS-23 and RPMI-7951, 1 μM CI-1040",sustained ERK phosphorylation
same,"pERK expression, in combination with PLX4720",[3],more effectively than did single-agent PLX4720
"CN(c1cccnc1)c1cc2c(Nc3ccc(F)c(Cl)c3)c(C#N)cnc2cn1 [small molecule COT kinase inhibitor, 4-(3-Chloro-4-fluorophenylamino)-6-(pyridin-3-yl-methylamino)-3-cyano-[1,7]-naphthyridine]",MEK and ERK phosphorylation,COT,dose-dependent suppression
